In ChEMBL document CHEMBL3621157, “Design, synthesis and biological evaluation of novel 1,2,4-triazolo and 1,2,4-triazino[4,3-a]quinoxalines as potential anticancer and antimicrobial agents” (2015):
≈ marks a conversion by molar mass, not a printed value.

What was measured:
Type in all cases: functional
HCT-15 [1] = experiment: Growth inhibition of human HCT15 cells at 10 uM incubated for 48 hrs by sulforhodamine B assay; conditions: HCT-15, 48 h, read-out: GI
KM12 = experiment: Growth inhibition of human KM12 cells incubated for 48 hrs by sulforhodamine B assay; conditions: KM12, 48 h
PC-3 [2] = experiment: Growth inhibition of human PC3 cells at 10 uM incubated for 48 hrs by sulforhodamine B assay; conditions: PC-3, 48 h, read-out: GI
Candida albicans [3] = experiment: Antimicrobial activity against Candida albicans DSM 70014 incubated at 37 degC for 48 hrs by cup diffusion method
Staphylococcus aureus = experiment: Antimicrobial activity against Staphylococcus aureus DSM 1104 incubated for 24 hrs followed by transfer of colonies to Muller-Hinton agar plate and measured after 18 hrs by two-fold serial broth dilution method
[4] = Growth inhibition of human EKVX cells incubated for 48 hrs by sulforhodamine B assay
UACC-62 = experiment: Growth inhibition of human UACC62 cells incubated for 48 hrs by sulforhodamine B assay; conditions: UACC-62, 48 h
K562 = experiment: Growth inhibition of human K562 cells at 10 uM incubated for 48 hrs by sulforhodamine B assay; conditions: K562, 48 h, read-out: GI
NCI-H522 = experiment: Growth inhibition of human NCI-H522 cells incubated for 48 hrs by sulforhodamine B assay; conditions: NCI-H522, 48 h
[5] = Growth inhibition of human MOLT4 cells at 10 uM incubated for 48 hrs by sulforhodamine B assay; conditions: MOLT-4, 48 h, read-out: GI
[6] = Growth inhibition of human HCC2998 cells incubated for 48 hrs by sulforhodamine B assay; conditions: HCC 2998, 48 h
HT-29 = experiment: Growth inhibition of human HT-29 cells incubated for 48 hrs by sulforhodamine B assay; conditions: HT-29, 48 h
[7] = Growth inhibition of human BT549 cells incubated for 48 hrs by sulforhodamine B assay; conditions: BT-549, 48 h
[8] = Growth inhibition of human HOP92 cells incubated for 48 hrs by sulforhodamine B assay; conditions: HOP-92, 48 h
ACHN = experiment: Growth inhibition of human ACHN cells incubated for 48 hrs by sulforhodamine B assay
CAKI-1 = experiment: Growth inhibition of human CAKI-1 cells incubated for 48 hrs by sulforhodamine B assay; conditions: CAKI-1, 48 h
[9] = Growth inhibition of human NCI-ADR-RES cells incubated for 48 hrs by sulforhodamine B assay
786-0 = experiment: Growth inhibition of human 786-0 cells incubated for 48 hrs by sulforhodamine B assay; conditions: 786-0, 48 h
SR [10] = experiment: Growth inhibition of human SR cells at 10 uM incubated for 48 hrs by sulforhodamine B assay; conditions: read-out: GI
OVCAR-8 = experiment: Growth inhibition of human OVCAR8 cells incubated for 48 hrs by sulforhodamine B assay; conditions: OVCAR-8, 48 h
HCT-15 [11] = experiment: Growth inhibition of human HCT15 cells incubated for 48 hrs by sulforhodamine B assay; conditions: HCT-15, 48 h
Escherichia coli [12] = experiment: Antimicrobial activity against Escherichia coli ATCC 11775 incubated for 24 hrs followed by transfer of colonies to Muller-Hinton agar plate and measured after 18 hrs by two-fold serial broth dilution method
NCI-H460 = experiment: Growth inhibition of human NCI-H460 cells incubated for 48 hrs by sulforhodamine B assay; conditions: NCI-H460, 48 h
HCT-116 = experiment: Growth inhibition of human HCT116 cells incubated for 48 hrs by sulforhodamine B assay; conditions: HCT-116, 48 h
PC-3 [13] = experiment: Growth inhibition of human PC3 cells incubated for 48 hrs by sulforhodamine B assay; conditions: PC-3, 48 h
SNB-19 = experiment: Growth inhibition of human SNB19 cells incubated for 48 hrs by sulforhodamine B assay; conditions: SNB-19, 48 h
UACC-257 = experiment: Growth inhibition of human UACC257 cells incubated for 48 hrs by sulforhodamine B assay; conditions: UACC-257, 48 h
A498 = experiment: Growth inhibition of human A498 cells at 10 uM incubated for 48 hrs by sulforhodamine B assay; conditions: A498, 48 h, read-out: GI
SW-620 = experiment: Growth inhibition of human SW620 cells incubated for 48 hrs by sulforhodamine B assay; conditions: SW-620, 48 h
[14] = Growth inhibition of human Hs 578T cells incubated for 48 hrs by sulforhodamine B assay
HL-60(TB) = experiment: Growth inhibition of human HL-60(TB) cells incubated for 48 hrs by sulforhodamine B assay; conditions: HL-60, 48 h
Escherichia coli [15] = experiment: Antimicrobial activity against Escherichia coli ATCC 11775 incubated at 37 degC for 24 hrs by cup diffusion method
Pseudomonas aeruginosa [16] = experiment: Antimicrobial activity against Pseudomonas aeruginosa ATCC 10145 incubated for 24 hrs followed by transfer of colonies to Muller-Hinton agar plate and measured after 18 hrs by two-fold serial broth dilution method
T47D = experiment: Growth inhibition of human T47D cells incubated for 48 hrs by sulforhodamine B assay
[17] = Growth inhibition of human LOXIMVI cells incubated for 48 hrs by sulforhodamine B assay; conditions: LOX IMVI
Pseudomonas aeruginosa [18] = experiment: Antimicrobial activity against Pseudomonas aeruginosa ATCC 10145 incubated for 24 hrs by two-fold serial broth dilution method; conditions: ATCC 10145, 24 h
[19] = Growth inhibition of human RXF393 cells incubated for 48 hrs by sulforhodamine B assay; conditions: RXF 393, 48 h
SK-MEL-5 = experiment: Growth inhibition of human SK-MEL-5 cells incubated for 48 hrs by sulforhodamine B assay; conditions: SK-MEL-5, 48 h
Candida albicans [20] = experiment: Antimicrobial activity against Candida albicans DSM 70014 incubated for 48 hrs by two-fold serial broth dilution method; conditions: DSM 70014, 48 h
NCI-H226 = experiment: Growth inhibition of human NCI-H226 cells incubated for 48 hrs by sulforhodamine B assay; conditions: NCI-H226, 48 h
[21] = Growth inhibition of human SF539 cells incubated for 48 hrs by sulforhodamine B assay; conditions: SF-539, 48 h
Bacillus subtilis = experiment: Antimicrobial activity against Bacillus subtilis ATCC 6633 incubated for 24 hrs followed by transfer of colonies to Muller-Hinton agar plate and measured after 18 hrs by two-fold serial broth dilution method
[22] = Growth inhibition of human EKVX cells at 10 uM incubated for 48 hrs by sulforhodamine B assay; conditions: read-out: GI
OVCAR-4 = experiment: Growth inhibition of human OVCAR4 cells incubated for 48 hrs by sulforhodamine B assay; conditions: OVCAR-4, 48 h
SNB-75 = experiment: Growth inhibition of human SNB75 cells incubated for 48 hrs by sulforhodamine B assay; conditions: SNB-75, 48 h
SR [23] = experiment: Growth inhibition of human SR cells incubated for 48 hrs by sulforhodamine B assay
OVCAR-3 = experiment: Growth inhibition of human OVCAR3 cells incubated for 48 hrs by sulforhodamine B assay; conditions: OVCAR-3, 48 h

## Clc1ccccc1-c1nnc2c(Cc3ccccc3)nc3ccccc3n12
HCT-15 [1]
  inhibition of growth at 10 µM: 55.4%
KM12
  GI50: 9.48 µM
PC-3 [2]
  inhibition of growth at 10 µM: 60.9%
Candida albicans [3]
  inhibition zone (IZ): 16 mm
Staphylococcus aureus
  MBC: 200 µg/mL (≈ 539 µM)
[4]
  GI50: 5.96 µM
UACC-62
  GI50: 7.96 µM
K562
  inhibition of growth at 10 µM: 78.6%
NCI-H522
  GI50: 53.9 µM
[5]
  inhibition of growth at 10 µM: 60.4%
[6]
  GI50: 42.8 µM
HT-29
  GI50: 9.15 µM
[7]
  GI50: 6.72 µM
[8]
  GI50: 3.45 µM
ACHN
  GI50: 34.1 µM
CAKI-1
  GI50: 9.71 µM
[9]
  GI50: 7.04 µM
786-0
  GI50: 10.4 µM
SR [10]
  inhibition of growth at 10 µM: 84.9%
OVCAR-8
  GI50: 7.21 µM
HCT-15 [11]
  GI50: 1.96 µM
Escherichia coli [12]
  MBC: 50 µg/mL (≈ 135 µM)
NCI-H460
  GI50: 3.49 µM
HCT-116
  GI50: 3.21 µM
PC-3 [13]
  GI50: 5.19 µM
SNB-19
  GI50: 27.8 µM
UACC-257
  GI50: 34.3 µM
A498
  inhibition of growth at 10 µM: 61.1%
SW-620
  GI50: 43.4 µM
[14]
  GI50: 9.66 µM
HL-60(TB)
  GI50: 32.5 µM
Escherichia coli [15]
  inhibition zone (IZ): 10 mm
Pseudomonas aeruginosa [16]
  MBC: 100 µg/mL (≈ 270 µM)
T47D
  GI50: 6.82 µM
[17]
  GI50: 3.69 µM
Pseudomonas aeruginosa [18]
  MIC: 50 µg/mL (≈ 135 µM)
[19]
  GI50: 8.45 µM
SK-MEL-5
  GI50: 5.9 µM
Candida albicans [20]
  MIC: 100 µg/mL (≈ 270 µM)
NCI-H226
  GI50: 9.96 µM
[21]
  GI50: 24.2 µM
Bacillus subtilis
  MBC: 50 µg/mL (≈ 135 µM)
[22]
  inhibition of growth at 10 µM: 48.1%
OVCAR-4
  GI50: 8.01 µM
SNB-75
  GI50: 6.12 µM
SR [23]
  GI50: 3.91 µM
OVCAR-3
  GI50: 21.7 µM
